Experimental data as given in ChEMBL document CHEMBL1201862, “PubChem BioAssay data set” (2004).
Active and inactive are the calls of the source.

What was measured:
[1] = target: T1, Bcl-2-like protein 10 (Homo sapiens, UniProt Q9HD36); assay: Biochemical TR3 FP assay of Bcl-B inhibitor potency, EC50 (AID 1243); assay type: functional
T1 sequence (Q9HD36 whole entry): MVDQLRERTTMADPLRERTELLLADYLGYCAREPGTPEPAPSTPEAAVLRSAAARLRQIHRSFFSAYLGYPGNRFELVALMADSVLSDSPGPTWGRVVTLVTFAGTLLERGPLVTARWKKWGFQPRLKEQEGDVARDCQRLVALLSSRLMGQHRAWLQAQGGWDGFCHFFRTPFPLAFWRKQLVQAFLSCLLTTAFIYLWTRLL

[2] = target: T2, Tyrosine-protein phosphatase non-receptor type 7 (Homo sapiens, UniProt P35236); assay type: functional
T2 sequence (P35236 whole entry): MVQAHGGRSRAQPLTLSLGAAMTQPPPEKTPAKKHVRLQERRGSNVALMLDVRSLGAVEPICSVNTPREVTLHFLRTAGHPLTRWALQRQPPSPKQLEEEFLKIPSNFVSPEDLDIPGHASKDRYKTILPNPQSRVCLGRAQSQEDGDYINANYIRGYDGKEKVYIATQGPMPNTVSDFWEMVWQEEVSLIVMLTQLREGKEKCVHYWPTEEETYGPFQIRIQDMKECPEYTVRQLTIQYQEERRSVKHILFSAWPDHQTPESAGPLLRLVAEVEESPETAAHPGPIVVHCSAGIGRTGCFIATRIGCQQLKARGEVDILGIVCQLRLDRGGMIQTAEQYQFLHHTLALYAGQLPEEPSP

[3] = target: T3, Dual specificity protein phosphatase 6 (Rattus norvegicus, UniProt Q64346)
[4] = target: Heat shock cognate 71 kDa protein (Homo sapiens, UniProt P11142); assay: In Vitro Hsc70 Dose Response Fluorescence Polarization Assay. [Related pubchem assays: 1072 ]
[5] = target: T3, Dual specificity protein phosphatase 6; assay type: functional
[6] = target: T4, Cysteine protease ATG4B (Homo sapiens, UniProt Q9Y4P1); assay type: functional;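 also: Fluorescence-based dose-response confirmation assay measuring inhibition of ATG4B activity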
T4 sequence (Q9Y4P1 whole entry): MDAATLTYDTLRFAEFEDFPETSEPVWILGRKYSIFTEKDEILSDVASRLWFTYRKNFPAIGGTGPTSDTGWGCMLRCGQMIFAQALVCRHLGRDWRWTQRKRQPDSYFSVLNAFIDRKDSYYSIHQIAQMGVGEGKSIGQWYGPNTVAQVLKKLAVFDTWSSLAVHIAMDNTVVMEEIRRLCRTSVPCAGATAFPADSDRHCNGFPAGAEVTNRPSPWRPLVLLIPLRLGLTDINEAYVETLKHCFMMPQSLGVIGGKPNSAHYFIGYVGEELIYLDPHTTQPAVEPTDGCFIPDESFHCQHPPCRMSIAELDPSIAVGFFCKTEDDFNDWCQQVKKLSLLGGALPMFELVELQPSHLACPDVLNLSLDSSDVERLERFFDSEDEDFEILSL

[7] = target: Heat shock 70 kDa protein 1A (Homo sapiens, UniProt P0DMV8); assay: Hsp70 inhibitors, SAR follow-up, biochemical, fluorescence polarization (AID 1072)
[8] = target: Phospholipase A2 (Homo sapiens, UniProt P04054); assay type: functional;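 also: confirmatory dose-response counterscreen on phospholipase A2, testing hits that came from an ultra-high-throughput screen for ATG4B inhibitors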
[9] = target: Dual specificity protein phosphatase 3 (Homo sapiens, UniProt P51452); assay: VHR1 inhibitor Ki determination, SAR follow-up, biochemical, colorimetric (AID 2004)
[10] = target: Glyceraldehyde-3-phosphate dehydrogenase (Homo sapiens, UniProt P04406)
[11] = target: Keap1/Nrf2 (Homo sapiens, UniProt Q14145); assay: Keap1-Nrf2 protein-protein interaction inhibitors, dose response, biochemical, fluorescence polarization, cherry-picked samples (AID 588683)
[12] = target: T5, Endoribonuclease toxin MazF (Escherichia coli K-12, UniProt P0AE70); assay: fluorescent RNA oligo signal without MazF, dose response, counter-screen for MazEF activator project, biochemical, fluorescence, single-stranded RNase substrate (AID 588502); assay type: functional
T5 sequence (P0AE70 whole entry): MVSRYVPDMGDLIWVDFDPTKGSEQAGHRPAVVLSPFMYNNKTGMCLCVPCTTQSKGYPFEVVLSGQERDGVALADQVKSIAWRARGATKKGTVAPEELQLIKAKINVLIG

[13] = target: T5, Endoribonuclease toxin MazF; assay: MazF toxin RNase activators, dose response, biochemical, fluorescence, single-stranded RNA substrate, uHTS hits (AID 588481); assay type: functional
[14] = target: T6, Apoptotic protease-activating factor 1 (Homo sapiens, UniProt O14727); assay: activation of Apaf-1 mediated apoptosis – fluorescent, uHTS hits, dose response (AID 588554); assay type: functional
T6 sequence (O14727 whole entry): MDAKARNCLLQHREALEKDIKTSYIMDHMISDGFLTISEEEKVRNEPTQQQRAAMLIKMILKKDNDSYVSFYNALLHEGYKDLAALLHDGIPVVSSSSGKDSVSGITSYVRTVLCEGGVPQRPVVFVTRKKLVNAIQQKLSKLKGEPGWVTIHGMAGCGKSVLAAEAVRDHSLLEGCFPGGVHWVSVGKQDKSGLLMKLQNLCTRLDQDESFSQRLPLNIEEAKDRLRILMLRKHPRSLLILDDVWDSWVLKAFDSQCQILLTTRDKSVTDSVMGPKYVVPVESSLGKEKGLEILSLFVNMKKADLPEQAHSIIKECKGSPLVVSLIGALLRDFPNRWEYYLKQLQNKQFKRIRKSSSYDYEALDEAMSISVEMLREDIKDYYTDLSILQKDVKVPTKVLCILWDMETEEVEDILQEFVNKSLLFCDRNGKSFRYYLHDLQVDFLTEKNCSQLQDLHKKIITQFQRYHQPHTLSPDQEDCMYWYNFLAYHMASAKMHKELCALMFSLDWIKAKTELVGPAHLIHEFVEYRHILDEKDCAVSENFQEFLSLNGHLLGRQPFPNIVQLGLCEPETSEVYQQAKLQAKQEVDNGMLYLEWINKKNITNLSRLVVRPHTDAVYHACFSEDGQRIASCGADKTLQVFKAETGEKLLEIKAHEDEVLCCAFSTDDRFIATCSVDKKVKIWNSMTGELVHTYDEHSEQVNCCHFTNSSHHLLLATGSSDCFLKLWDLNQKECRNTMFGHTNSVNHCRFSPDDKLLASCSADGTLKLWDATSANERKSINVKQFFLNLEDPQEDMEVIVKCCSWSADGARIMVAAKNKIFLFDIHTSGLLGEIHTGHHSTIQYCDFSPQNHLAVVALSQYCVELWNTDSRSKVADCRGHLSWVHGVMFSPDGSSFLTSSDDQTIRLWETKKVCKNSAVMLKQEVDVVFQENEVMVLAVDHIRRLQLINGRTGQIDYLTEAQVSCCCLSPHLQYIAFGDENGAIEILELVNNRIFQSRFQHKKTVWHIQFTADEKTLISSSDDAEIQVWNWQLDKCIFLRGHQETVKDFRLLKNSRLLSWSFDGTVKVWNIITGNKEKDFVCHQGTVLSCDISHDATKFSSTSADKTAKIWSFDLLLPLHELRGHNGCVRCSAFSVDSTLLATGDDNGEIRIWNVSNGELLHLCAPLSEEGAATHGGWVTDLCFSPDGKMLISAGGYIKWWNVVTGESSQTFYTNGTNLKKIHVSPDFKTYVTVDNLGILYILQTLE

[15] = target: T7, Eukaryotic translation initiation factor 4H (Homo sapiens, UniProt Q15056); assay: eIF4H inhibition in translation initiation, SAR follow-up (AID 435011); assay type: functional
[16] = target: T8, Polyadenylate-binding protein 1 (Homo sapiens, UniProt P11940); assay: PABP inhibition in translation initiation, SAR follow-up (AID 435018); assay type: functional
[17] = target: T8, Polyadenylate-binding protein 1; assay: PABP poly(A) RNA binding inhibitors, primary screen, biochemical, fluorescence polarization, uHTS (AID 2014)
[18] = target: T7, Eukaryotic translation initiation factor 4H; assay: human eIF4H binding inhibitors, primary screen, translation initiation inhibitor project, biochemical, uHTS, fluorescence polarization (AID 2012)
[19] = target: T9, Small ubiquitin-related modifier 1 (Homo sapiens, UniProt P63165); assay: inhibitors of SUMO1 peptide binding, dose response, biochemical, fluorescence polarization, uHTS hits (AID 624382); assay type: functional; conditions: read-out: IC50_Mean
[20] = target: T9, Small ubiquitin-related modifier 1; assay: inhibitors of SUMO1 partner interactions, dose response, biochemical, FRET (AID 624383); assay type: functional; conditions: read-out: IC50_Mean
[21] = target: UDP-galactopyranose mutase (Mycobacterium tuberculosis, UniProt P9WIQ1); assay: Inhibitors of Mycobacterium tuberculosis UDP-galactopyranose mutase (UGM) enzyme Measured in Biochemical System Using Plate Reader - 2105-02_Inhibitor_Dose_CherryPick_Activity. [Related pubchem assays (depositor defined):AID504439]
[22] = system: Candida albicans; assay: growth inhibition of resistant C. albicans, dose response, CaCi-8, fluconazole, Alamar Blue, dry powder (AID 488807); assay type: functional, organism-based
[23] = A Cell Based Secondary Assay To Explore Cytotoxicity of Compounds that Sensitize Mycobacterium Tuberculosis to Beta-Lactam Antibiotics.; assay type: functional
[24] = inhibitors of SNCA 5'UTR-driven reporter translation, confirmation, H4 neuroglioma cells, luminescence (AID 1988); assay type: functional, cell-based
[25] = Luminescence Cell-Based Dose Retest to Confirm Inhibitors of Cancer Stem Cells. [Related pubchem assays (depositor defined):AID2717, AID2721]; assay type: functional; conditions: Homo sapiens
[26] = cytotoxicity in HMLE control line with eGFP shRNA, dose response, counter-screen for HMLE_sh_ECad selective toxicity project, cell-based, HMLE_sh_eGFP, luminescence (AID 463074); assay type: functional, Homo sapiens;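 also: HMLE human mammary epithelial cells expressing control shRNA against eGFP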
[27] = inhibitors of firefly luciferase expression or activity, dose response, H4 neuroglioma cells, luminescence (AID 1990); assay type: functional, cell-based
[28] = target: T10, Estrogen receptor (Homo sapiens, UniProt P03372);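 also: potency for inhibiting coactivator peptide recruitment to the receptor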
T10 sequence (P03372 whole entry): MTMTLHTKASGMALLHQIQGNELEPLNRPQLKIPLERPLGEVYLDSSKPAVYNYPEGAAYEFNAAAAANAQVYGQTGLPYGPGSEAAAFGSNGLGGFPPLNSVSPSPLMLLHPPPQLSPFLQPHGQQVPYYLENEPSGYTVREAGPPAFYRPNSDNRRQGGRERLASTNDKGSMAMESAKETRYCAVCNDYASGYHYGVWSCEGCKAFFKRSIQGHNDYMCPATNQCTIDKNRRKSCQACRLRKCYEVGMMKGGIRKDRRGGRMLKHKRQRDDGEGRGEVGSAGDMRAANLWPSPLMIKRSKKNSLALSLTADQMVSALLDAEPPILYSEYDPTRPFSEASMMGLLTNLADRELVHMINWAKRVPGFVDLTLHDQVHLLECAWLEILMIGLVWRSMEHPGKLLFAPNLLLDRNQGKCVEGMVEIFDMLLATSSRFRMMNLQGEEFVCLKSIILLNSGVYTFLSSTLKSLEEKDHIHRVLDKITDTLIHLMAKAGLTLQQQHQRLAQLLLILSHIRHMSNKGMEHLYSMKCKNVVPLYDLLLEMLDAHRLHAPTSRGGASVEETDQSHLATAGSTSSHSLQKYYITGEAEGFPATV

[29] = Luminescence Cell-Based Dose Response HTS to Identify Inhibitors of 5'UTR Stem-Loop Driven Prion Protein mRNA Translation in H4 Neuroglioblastoma Cells. [Related pubchem assays: 1827 (Project Summary), 1813 (Primary HTS)]; assay type: functional

T8 sequence (P11940 whole entry): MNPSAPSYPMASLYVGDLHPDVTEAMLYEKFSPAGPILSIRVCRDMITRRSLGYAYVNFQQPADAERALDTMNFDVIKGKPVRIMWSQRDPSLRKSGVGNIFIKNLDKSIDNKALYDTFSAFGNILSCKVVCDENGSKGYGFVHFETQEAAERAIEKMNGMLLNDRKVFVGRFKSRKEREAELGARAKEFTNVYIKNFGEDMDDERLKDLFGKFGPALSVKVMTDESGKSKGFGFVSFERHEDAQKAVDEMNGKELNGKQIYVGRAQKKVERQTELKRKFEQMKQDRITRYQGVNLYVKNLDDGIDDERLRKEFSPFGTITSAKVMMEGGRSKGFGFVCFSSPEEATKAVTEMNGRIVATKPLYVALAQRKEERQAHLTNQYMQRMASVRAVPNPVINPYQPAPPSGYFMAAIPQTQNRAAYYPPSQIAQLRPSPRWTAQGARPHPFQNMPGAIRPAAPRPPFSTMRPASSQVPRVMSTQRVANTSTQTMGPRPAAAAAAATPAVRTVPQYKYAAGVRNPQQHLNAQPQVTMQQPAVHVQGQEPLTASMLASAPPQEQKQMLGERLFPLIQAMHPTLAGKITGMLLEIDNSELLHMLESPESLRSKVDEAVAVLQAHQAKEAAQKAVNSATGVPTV
T3 sequence (Q64346 whole entry): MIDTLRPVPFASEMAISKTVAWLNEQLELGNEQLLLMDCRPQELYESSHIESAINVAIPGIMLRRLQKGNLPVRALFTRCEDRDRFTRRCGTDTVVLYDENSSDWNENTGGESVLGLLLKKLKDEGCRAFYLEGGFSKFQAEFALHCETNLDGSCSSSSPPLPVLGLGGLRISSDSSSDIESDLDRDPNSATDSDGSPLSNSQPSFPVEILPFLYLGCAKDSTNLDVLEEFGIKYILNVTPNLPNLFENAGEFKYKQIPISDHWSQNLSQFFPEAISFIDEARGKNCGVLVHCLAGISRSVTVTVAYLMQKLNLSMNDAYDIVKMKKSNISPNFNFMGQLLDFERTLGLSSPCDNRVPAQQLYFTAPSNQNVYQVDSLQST
T9 sequence (P63165 whole entry): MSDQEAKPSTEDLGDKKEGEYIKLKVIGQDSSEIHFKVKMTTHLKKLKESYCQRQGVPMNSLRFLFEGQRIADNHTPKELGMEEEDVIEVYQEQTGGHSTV
Chain of UDP-galactopyranose mutase (P9WIQ1 whole entry): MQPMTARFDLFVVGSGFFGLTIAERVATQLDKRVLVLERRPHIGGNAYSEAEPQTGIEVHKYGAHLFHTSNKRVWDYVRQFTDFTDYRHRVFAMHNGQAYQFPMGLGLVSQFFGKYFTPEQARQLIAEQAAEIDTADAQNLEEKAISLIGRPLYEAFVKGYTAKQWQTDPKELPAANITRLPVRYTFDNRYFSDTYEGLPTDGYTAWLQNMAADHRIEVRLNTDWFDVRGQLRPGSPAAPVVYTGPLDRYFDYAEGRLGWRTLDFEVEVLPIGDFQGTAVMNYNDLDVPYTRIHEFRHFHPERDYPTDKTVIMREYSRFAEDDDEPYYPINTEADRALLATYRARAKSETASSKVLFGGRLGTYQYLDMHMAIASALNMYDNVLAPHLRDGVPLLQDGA
Chain of Heat shock cognate 71 kDa protein (P11142 whole entry): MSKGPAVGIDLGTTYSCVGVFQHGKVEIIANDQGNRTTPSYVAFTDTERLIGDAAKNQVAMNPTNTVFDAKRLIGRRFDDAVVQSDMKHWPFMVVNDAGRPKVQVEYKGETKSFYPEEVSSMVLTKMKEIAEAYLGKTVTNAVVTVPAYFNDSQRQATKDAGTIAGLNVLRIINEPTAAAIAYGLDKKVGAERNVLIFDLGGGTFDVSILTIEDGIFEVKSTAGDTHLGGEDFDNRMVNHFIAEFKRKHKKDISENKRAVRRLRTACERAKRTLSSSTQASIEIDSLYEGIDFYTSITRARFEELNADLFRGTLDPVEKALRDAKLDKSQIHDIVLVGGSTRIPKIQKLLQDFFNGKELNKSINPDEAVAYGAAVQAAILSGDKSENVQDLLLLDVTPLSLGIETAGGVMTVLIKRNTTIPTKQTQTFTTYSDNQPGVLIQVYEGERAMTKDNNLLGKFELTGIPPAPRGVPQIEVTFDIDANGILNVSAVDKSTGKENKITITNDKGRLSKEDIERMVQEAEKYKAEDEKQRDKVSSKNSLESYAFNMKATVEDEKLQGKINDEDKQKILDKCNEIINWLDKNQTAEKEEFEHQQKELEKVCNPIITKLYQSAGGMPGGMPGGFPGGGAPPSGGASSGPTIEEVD
Chain of Dual specificity protein phosphatase 3 (P51452 whole entry): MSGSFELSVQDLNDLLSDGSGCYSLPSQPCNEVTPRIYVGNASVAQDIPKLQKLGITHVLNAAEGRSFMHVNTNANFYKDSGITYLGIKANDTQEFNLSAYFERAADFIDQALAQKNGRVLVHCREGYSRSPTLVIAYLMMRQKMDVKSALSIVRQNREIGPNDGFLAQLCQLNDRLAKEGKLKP
Chain of Phospholipase A2 (P04054 whole entry): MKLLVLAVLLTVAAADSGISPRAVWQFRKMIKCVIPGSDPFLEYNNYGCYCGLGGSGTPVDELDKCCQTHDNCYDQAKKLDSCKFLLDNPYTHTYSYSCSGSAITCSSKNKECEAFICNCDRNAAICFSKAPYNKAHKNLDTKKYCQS
Chain of Glyceraldehyde-3-phosphate dehydrogenase (P04406 whole entry): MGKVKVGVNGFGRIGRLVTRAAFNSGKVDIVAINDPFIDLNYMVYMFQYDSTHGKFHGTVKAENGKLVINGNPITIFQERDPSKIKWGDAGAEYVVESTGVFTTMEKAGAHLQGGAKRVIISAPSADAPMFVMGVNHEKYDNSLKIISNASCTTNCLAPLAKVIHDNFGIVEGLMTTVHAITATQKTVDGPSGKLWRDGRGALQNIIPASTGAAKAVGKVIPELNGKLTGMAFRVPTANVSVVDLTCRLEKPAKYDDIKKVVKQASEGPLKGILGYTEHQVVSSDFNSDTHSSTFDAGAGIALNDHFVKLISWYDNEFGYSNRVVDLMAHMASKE
Chain of Heat shock 70 kDa protein 1A (P0DMV8 whole entry): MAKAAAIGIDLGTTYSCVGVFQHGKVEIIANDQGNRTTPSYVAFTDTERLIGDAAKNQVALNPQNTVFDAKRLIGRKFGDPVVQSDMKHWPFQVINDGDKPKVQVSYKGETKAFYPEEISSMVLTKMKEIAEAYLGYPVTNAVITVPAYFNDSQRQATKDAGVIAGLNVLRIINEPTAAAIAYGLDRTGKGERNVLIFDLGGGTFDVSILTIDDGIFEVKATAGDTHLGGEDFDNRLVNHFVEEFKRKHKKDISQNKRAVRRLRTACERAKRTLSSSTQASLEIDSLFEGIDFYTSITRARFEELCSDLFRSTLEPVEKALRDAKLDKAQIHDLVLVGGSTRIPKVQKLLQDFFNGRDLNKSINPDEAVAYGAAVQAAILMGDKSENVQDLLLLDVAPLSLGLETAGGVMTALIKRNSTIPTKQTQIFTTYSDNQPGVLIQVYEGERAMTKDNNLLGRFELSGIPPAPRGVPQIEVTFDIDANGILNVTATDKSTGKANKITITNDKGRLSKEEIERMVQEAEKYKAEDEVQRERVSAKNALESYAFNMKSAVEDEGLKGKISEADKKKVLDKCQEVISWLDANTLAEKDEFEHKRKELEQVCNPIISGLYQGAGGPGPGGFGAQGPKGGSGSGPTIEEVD

## O=C(O)C1Nc2c(Cl)cc(Cl)cc2C2C=CCC12 (centres undefined)
[1]
  EC50: 1.03 µM (active)
[2]
  IC50: 12.9 µM (active)
[3]
  IC50: 63.5 µM (active)
[4]
  IC50: > 100 µM (not active)
[5]
  IC50: 53 µM (active)
[6]
  IC50: 2.58 µM (active)
[7]
  IC50: > 100 µM (not active)
[8]
  IC50: 9.08 µM (active)
[9]
  Ki: 65.6 µM (inactive)
[10]
  IC50: > 100 µM (not active)

## O=C(C1=C(O)C(=O)N(c2nccs2)C1c1ccccc1)c1cc2ccccc2o1 (centres undefined)
[11]
  AC50: 1.15 µM (active)
[12]
  EC50: > 99 µM (inactive)
[13]
  EC50: > 99 µM (inactive)

## COc1cc([N+](=O)[O-])ccc1NC(=O)COC(=O)c1ccc(NC(N)=O)cc1
[14]
  EC50: 10.4 µM (active)
[15]
  IC50: 4.62 µM (active)
[16]
  IC50: 76.2 µM (active)
[17]
  IC50: > 100 µM (inactive)
[18]
  IC50: 14.6 µM (active)
[19]
  IC50: > 66.6 µM (inactive)
[20]
  IC50: 10.2 µM (active)

## O=C(NCCc1ccc(F)cc1)c1cccc2c1C(=O)c1ccc(N3CCC(Cc4ccccc4)CC3)cc1S2(=O)=O
[21]
  AC50: 47.8 µM (active)

## Oc1c2nc3ccccc3c-2nc2n1CCS2
[22]
  AC50: 17.1 µM (active)

## Cc1nc2ccccc2c(=O)n1/N=C/c1c(O)ccc2oc3c(c12)CCCC3
[23]
  CC50: 4.26 µM (active)
[24]
  EC50: 9.98 µM (active)
[25]
  AC50: 30 µM (active)
[26]
  AC50: 32.8 µM (active)
[27]
  EC50: 11.1 µM (active)
[28]
  IC50: 29.2 µM (active)
[29]
  EC50: 11.7 µM (active)
